Test results taken from ChEMBL document CHEMBL5050844 (2019).

How the values were obtained:
[1] = Induction of anti-CD3/CD28 antibodies-stimulated human T cell activation at 4 uM assessed fold increase in CD25 expression measured by ELISA assay; format: functional, T cell line
[2] = Induction of anti-CD3 antibodies-stimulated human T cell activation at 1 uM assessed fold increase in CD25 expression measured by ELISA assay; format: functional, T cell line; also: reference of the scale not given here
[3] = Induction of anti-CD3/CD28 antibodies-stimulated human T cell activation at 1 uM assessed fold increase in IL-2 secretion measured by ELISA assay; format: functional, T cell line
[4] = Induction of anti-CD3/CD28 antibodies-stimulated human T cell activation at 4 uM assessed fold increase in IL-2 secretion measured by ELISA assay; format: functional, T cell line
[5] = Induction of anti-CD3 antibodies-stimulated human T cell activation at 1 uM assessed fold increase in IL-2 secretion measured by ELISA assay; format: functional, T cell line; also: reference of the scale not given here
[6] = Induction of anti-CD3 antibodies-stimulated human T cell activation at 8 uM assessed fold increase in IL-2 secretion measured by ELISA assay; format: functional, T cell line; also: reference of the scale not given here
[7] = Induction of anti-CD3/CD28 antibodies-stimulated human T cell activation at 0.3 uM assessed fold increase in IL-2 secretion measured by ELISA assay; format: functional, T cell line
[8] = Induction of anti-CD3 antibodies-stimulated human T cell activation at 8 uM assessed fold increase in CD25 expression measured by ELISA assay; format: functional, T cell line; also: reference of the scale not given here
[9] = Induction of anti-CD3/CD28 antibodies-stimulated human T cell activation at 0.3 uM assessed fold increase in CD25 expression measured by ELISA assay; format: functional, T cell line
[10] = Induction of anti-CD3/CD28 antibodies-stimulated human T cell activation at 1 uM assessed fold increase in CD25 expression measured by ELISA assay; format: functional, T cell line
[11] = molecular target: E3 ubiquitin-protein ligase CBL-B (Homo sapiens, UniProt Q13191); experiment: Inhibition of N-terminal Avi-tagged human CBL-B (36 to 427 residues) incubated with 60 nM Src kinase for 1.5 hrs followed by incubation with fluorescently labeled UbcH5B-Ub for 1 hr and measured by TR-FRET assay; format: single protein
E3 ubiquitin-protein ligase CBL-B, sequence (Q13191 whole entry, the tested form may be a part): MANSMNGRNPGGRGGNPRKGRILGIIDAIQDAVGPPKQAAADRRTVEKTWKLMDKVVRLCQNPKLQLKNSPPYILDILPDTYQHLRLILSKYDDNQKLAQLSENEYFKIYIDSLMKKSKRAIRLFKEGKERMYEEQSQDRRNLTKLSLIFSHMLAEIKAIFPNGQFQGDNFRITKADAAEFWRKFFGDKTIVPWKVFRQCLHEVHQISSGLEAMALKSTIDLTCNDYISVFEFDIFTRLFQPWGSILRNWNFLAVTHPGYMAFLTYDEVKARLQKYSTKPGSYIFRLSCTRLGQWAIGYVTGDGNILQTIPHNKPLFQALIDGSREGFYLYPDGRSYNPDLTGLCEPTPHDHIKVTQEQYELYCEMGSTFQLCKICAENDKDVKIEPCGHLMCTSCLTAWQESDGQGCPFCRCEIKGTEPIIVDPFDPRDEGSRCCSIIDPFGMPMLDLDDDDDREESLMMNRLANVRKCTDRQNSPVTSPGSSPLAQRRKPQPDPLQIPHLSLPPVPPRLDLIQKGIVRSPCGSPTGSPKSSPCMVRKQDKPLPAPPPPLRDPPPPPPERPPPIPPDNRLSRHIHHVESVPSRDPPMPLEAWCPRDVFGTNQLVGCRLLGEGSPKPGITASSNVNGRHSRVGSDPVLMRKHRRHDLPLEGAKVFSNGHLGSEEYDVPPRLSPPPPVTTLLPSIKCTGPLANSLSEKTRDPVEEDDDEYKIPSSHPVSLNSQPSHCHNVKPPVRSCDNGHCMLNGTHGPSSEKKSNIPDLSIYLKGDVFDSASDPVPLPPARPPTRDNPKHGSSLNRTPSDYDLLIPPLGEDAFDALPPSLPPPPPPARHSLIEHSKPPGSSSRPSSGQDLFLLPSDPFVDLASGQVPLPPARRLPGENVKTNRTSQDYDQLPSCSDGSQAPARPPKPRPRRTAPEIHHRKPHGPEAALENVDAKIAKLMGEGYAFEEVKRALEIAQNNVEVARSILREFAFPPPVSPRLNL

| SMILES | fold change (FC) [1] | fold change (FC) [2] | fold change (FC) [3] | fold change (FC) [4] | fold change (FC) [5] | fold change (FC) [6] | fold change (FC) [7] | fold change (FC) [8] | fold change (FC) [9] | fold change (FC) [10] | IC50 [11] [nM] |
| --- | --- | --- | --- | --- | --- | --- | --- | --- | --- | --- | --- |
| C[C@H](Sc1nncn1C)c1cccc(NC(=O)c2ccc(CO)c(C3CC3)n2)c1 | 1.31 | <=0.6 | 2.51 | 5 | <=0.05 | 0.101 | 1.01 | 0.801 | 1.01 | 1.01 | < 100 |
| Cc1cc(C(=O)Nc2cccc(C3(Cc4nncn4C)COC3)c2)nc(C2CC2)c1 | 1.51 | >=1.001 | >=7.5 | >=7.5 | >=0.201 | >=0.201 | 5 | >=1.001 | 1.31 | 1.31 | < 100 |
| C[C@H](Cc1nncn1C)c1cccc(NC(=O)c2ccnc3ccnn23)c1 | 1.01 | 0.801 | 1.01 | 2.51 | 0.051 | 0.101 | 1.01 | >=1.001 | 1.01 | 1.01 | < 100 |
| Cn1cnnc1CC1(c2cccc(NC(=O)c3cc(C4CC4)nc(C4CC4)n3)c2)COC1 | 1.31 | >=1.001 | >=7.5 | >=7.5 | 0.151 | >=0.201 | 2.51 | >=1.001 | 1.01 | 1.01 | < 100 |
| Cn1cnnc1CC(C)(C)c1cccc(NC(=O)c2cccc(C(F)(F)F)n2)c1 | 1.31 | 0.801 | 2.51 | >=7.5 | >=0.201 | >=0.201 | 1.01 | >=1.001 | 1.01 | 1.01 | < 100 |
| C[C@H](Sc1nncn1C)c1cccc(NC(=O)c2ccc(F)c(C3CC3)n2)c1 | 1.01 | 0.601 | 2.51 | >=7.5 | <=0.05 | 0.101 | 1.01 | >=1.001 | <=1 | <=1 | < 100 |
